Reference: ChEMBL document CHEMBL3885881, “DrugMatrix”

Species: Rattus norvegicus
Test: DrugMatrix - Regimen: Daily Repeat
Type: toxicity, organism-based, Sprague-Dawley
Set-up: regimen Daily Repeat, gender Male, age 6-8 weeks
Conditions: in vivo, po, route oral GAVAGE, […]; for ABSOLUTE BASOPHIL / BASOPHIL / EOSINOPHIL / ERYTHROCYTE COUNT / HEMATOCRIT / HEMOGLOBIN / LEUKOCYTE COUNT / LYMPHOCYTE / MEAN CORPUSCULAR HEMOGLOBIN / MEAN CORPUSCULAR HEMOGLOBIN CONCENTRATION / MEAN CORPUSCULAR VOLUME / MONOCYTE / NEUTROPHIL / PLATELET COUNT: tissue Blood
[1] = 30 mg/kg, 120 h, tissue Plasma, dose level Low, time 5 day
[2] = 35 mg/kg, 72 h, dose level Low, time 3 day
[3] = 35 mg/kg, 72 h, tissue Plasma, dose level Low, time 3 day
[4] = 35 mg/kg, 120 h, dose level Low, time 5 day
[5] = 35 mg/kg, 120 h, tissue Plasma, dose level Low, time 5 day
[6] = 400 mg/kg, 72 h, dose level High, time 3 day
[7] = 400 mg/kg, 72 h, tissue Plasma, dose level High, time 3 day
[8] = 400 mg/kg, 120 h, dose level High, time 5 day
[9] = 400 mg/kg, 120 h, tissue Plasma, dose level High, time 5 day

Question: Which results are given for `Cc1ccc(-c2cc(C(F)(F)F)nn2-c2ccc(S(N)(=O)=O)cc2)cc1` [CELECOXIB]?
Answer: ALBUMIN [1]: 3.93 G/DL; ALKALINE PHOSPHATASE [1]: 354.33 u/L; ASPARTATE AMINOTRANSFERASE [1]: 82.67 u/L; BLOOD UREA NITROGEN [1]: 10.67 mg/dL; CARBON DIOXIDE [1]: 25 mmol/L; CHLORIDE [1]: 101 MEQ/L; CHOLESTEROL [1]: 56.33 mg/dL; CREATINE PHOSPHOKINASE [1]: 247 u/L; CREATININE [1]: 0.12 mg/dL; GLUCOSE [1]: 191.67 mg/dL; LACTATE DEHYDROGENASE [1]: 107 u/L; LIPASE [1]: 6.33 u/L; PHOSPHORUS [1]: 12.27 mg/dL; POTASSIUM [1]: 5.29 MEQ/L; SODIUM [1]: 142.9 MEQ/L; TOTAL BILIRUBIN [1]: 0.2 mg/dL; TOTAL PROTEIN [1]: 5.8 G/DL; URIC ACID [1]: 1.67 mg/dL; ABSOLUTE BASOPHIL [2]: 23.3 cells/µL; BASOPHIL [2]: 0.2%; EOSINOPHIL [2]: 0.57%; ERYTHROCYTE COUNT [2]: 6.93 x10E6/uL; HEMATOCRIT [2]: 43.8%; HEMOGLOBIN [2]: 14.23 G/DL; LEUKOCYTE COUNT [2]: 11.06 x10E3/uL; LYMPHOCYTE [2]: 78.9%; MEAN CORPUSCULAR HEMOGLOBIN [2]: 20.57 pg; MEAN CORPUSCULAR HEMOGLOBIN CONCENTRATION [2]: 32.53 G/DL; MEAN CORPUSCULAR VOLUME [2]: 63.27 fL; MONOCYTE [2]: 2.2%; NEUTROPHIL [2]: 16.8%; PLATELET COUNT [2]: 1233.67 x10E3/uL; ALANINE AMINOTRANSFERASE [3]: 48 u/L; ALBUMIN [3]: 3.53 G/DL; ALKALINE PHOSPHATASE [3]: 409.67 u/L; ASPARTATE AMINOTRANSFERASE [3]: 65 u/L; BLOOD UREA NITROGEN [3]: 10.33 mg/dL; CHLORIDE [3]: 105.67 MEQ/L; CHOLESTEROL [3]: 68.67 mg/dL; CREATINE PHOSPHOKINASE [3]: 192.67 u/L; CREATININE [3]: 0.37 mg/dL; GLUCOSE [3]: 180 mg/dL; PHOSPHORUS [3]: 12.47 mg/dL; POTASSIUM [3]: 6.47 MEQ/L; SODIUM [3]: 146.67 MEQ/L; TOTAL BILIRUBIN [3]: 0.43 mg/dL; TOTAL PROTEIN [3]: 5.63 G/DL; ABSOLUTE BASOPHIL [4]: 56.7 cells/µL; BASOPHIL [4]: 0.5%; EOSINOPHIL [4]: 0.17%; ERYTHROCYTE COUNT [4]: 6.92 x10E6/uL; HEMATOCRIT [4]: 43.47%; HEMOGLOBIN [4]: 14.1 G/DL; LEUKOCYTE COUNT [4]: 12.56 x10E3/uL; LYMPHOCYTE [4]: 82.3%; MEAN CORPUSCULAR HEMOGLOBIN [4]: 20.4 pg; MEAN CORPUSCULAR HEMOGLOBIN CONCENTRATION [4]: 32.43 G/DL; MEAN CORPUSCULAR VOLUME [4]: 62.8 fL; MONOCYTE [4]: 1.9%; NEUTROPHIL [4]: 13.9%; PLATELET COUNT [4]: 1178.33 x10E3/uL; ALANINE AMINOTRANSFERASE [5]: 42 u/L; ALBUMIN [5]: 3.57 G/DL; ALKALINE PHOSPHATASE [5]: 324.67 u/L; ASPARTATE AMINOTRANSFERASE [5]: 63.67 u/L; BLOOD UREA NITROGEN [5]: 9.67 mg/dL; CHLORIDE [5]: 103 MEQ/L; CHOLESTEROL [5]: 76.67 mg/dL; CREATINE PHOSPHOKINASE [5]: 179.33 u/L; CREATININE [5]: 0.37 mg/dL; GLUCOSE [5]: 187.33 mg/dL; PHOSPHORUS [5]: 11.8 mg/dL; POTASSIUM [5]: 6.73 MEQ/L; SODIUM [5]: 146 MEQ/L; TOTAL BILIRUBIN [5]: 0.33 mg/dL; TOTAL PROTEIN [5]: 5.9 G/DL; ABSOLUTE BASOPHIL [6]: 30 cells/µL; BASOPHIL [6]: 0.27%; EOSINOPHIL [6]: 0.6%; ERYTHROCYTE COUNT [6]: 6.71 x10E6/uL; HEMATOCRIT [6]: 42.57%; HEMOGLOBIN [6]: 14.27 G/DL; LEUKOCYTE COUNT [6]: 12.22 x10E3/uL; LYMPHOCYTE [6]: 70.53%; MEAN CORPUSCULAR HEMOGLOBIN [6]: 21.27 pg; MEAN CORPUSCULAR HEMOGLOBIN CONCENTRATION [6]: 33.53 G/DL; MEAN CORPUSCULAR VOLUME [6]: 63.47 fL; MONOCYTE [6]: 3.27%; NEUTROPHIL [6]: 24.33%; PLATELET COUNT [6]: 1571.33 x10E3/uL; ALANINE AMINOTRANSFERASE [7]: 62 u/L; ALBUMIN [7]: 3.4 G/DL; ALKALINE PHOSPHATASE [7]: 437.67 u/L; ASPARTATE AMINOTRANSFERASE [7]: 74.67 u/L; BLOOD UREA NITROGEN [7]: 9.33 mg/dL; CHLORIDE [7]: 106.67 MEQ/L; CHOLESTEROL [7]: 88.33 mg/dL; CREATINE PHOSPHOKINASE [7]: 191.67 u/L; CREATININE [7]: 0.33 mg/dL; GLUCOSE [7]: 177.33 mg/dL; PHOSPHORUS [7]: 12.6 mg/dL; POTASSIUM [7]: 6.63 MEQ/L; SODIUM [7]: 145 MEQ/L; TOTAL BILIRUBIN [7]: 0.33 mg/dL; TOTAL PROTEIN [7]: 5.53 G/DL; ABSOLUTE BASOPHIL [8]: 190 cells/µL; BASOPHIL [8]: 1.28%; EOSINOPHIL [8]: 0.3%; ERYTHROCYTE COUNT [8]: 6.61 x10E6/uL; HEMATOCRIT [8]: 42.7%; HEMOGLOBIN [8]: 13.26 G/DL; LEUKOCYTE COUNT [8]: 18.19 x10E3/uL; LYMPHOCYTE [8]: 68.98%; MEAN CORPUSCULAR HEMOGLOBIN [8]: 20.16 pg; MEAN CORPUSCULAR HEMOGLOBIN CONCENTRATION [8]: 31.14 G/DL; MEAN CORPUSCULAR VOLUME [8]: 64.7 fL; MONOCYTE [8]: 2.54%; NEUTROPHIL [8]: 25.24%; PLATELET COUNT [8]: 1512.2 x10E3/uL; ALANINE AMINOTRANSFERASE [9]: 41.6 u/L; ALBUMIN [9]: 3.44 G/DL; ALKALINE PHOSPHATASE [9]: 451.2 u/L; ASPARTATE AMINOTRANSFERASE [9]: 64.8 u/L; BLOOD UREA NITROGEN [9]: 11.2 mg/dL; CHLORIDE [9]: 105.8 MEQ/L; CHOLESTEROL [9]: 91.6 mg/dL; CREATINE PHOSPHOKINASE [9]: 166.4 u/L; CREATININE [9]: 0.34 mg/dL; GLUCOSE [9]: 185.8 mg/dL; PHOSPHORUS [9]: 12.94 mg/dL; POTASSIUM [9]: 7.1 MEQ/L; SODIUM [9]: 151 MEQ/L; TOTAL BILIRUBIN [9]: 0.2 mg/dL; TOTAL PROTEIN [9]: 5.9 G/DL
